How the values were obtained:
Assay type in all cases: biochemical
soybean lipoxygenase LOX = target: T1, soybean lipoxygenase LOX (Glycine max, UniProt P08170); experiment: Lipoxygenase (LOX) inhibition, UV-based enzyme assay; conditions: for LOX (%): tested at 100 μM
T1 sequence (P08170 1-839): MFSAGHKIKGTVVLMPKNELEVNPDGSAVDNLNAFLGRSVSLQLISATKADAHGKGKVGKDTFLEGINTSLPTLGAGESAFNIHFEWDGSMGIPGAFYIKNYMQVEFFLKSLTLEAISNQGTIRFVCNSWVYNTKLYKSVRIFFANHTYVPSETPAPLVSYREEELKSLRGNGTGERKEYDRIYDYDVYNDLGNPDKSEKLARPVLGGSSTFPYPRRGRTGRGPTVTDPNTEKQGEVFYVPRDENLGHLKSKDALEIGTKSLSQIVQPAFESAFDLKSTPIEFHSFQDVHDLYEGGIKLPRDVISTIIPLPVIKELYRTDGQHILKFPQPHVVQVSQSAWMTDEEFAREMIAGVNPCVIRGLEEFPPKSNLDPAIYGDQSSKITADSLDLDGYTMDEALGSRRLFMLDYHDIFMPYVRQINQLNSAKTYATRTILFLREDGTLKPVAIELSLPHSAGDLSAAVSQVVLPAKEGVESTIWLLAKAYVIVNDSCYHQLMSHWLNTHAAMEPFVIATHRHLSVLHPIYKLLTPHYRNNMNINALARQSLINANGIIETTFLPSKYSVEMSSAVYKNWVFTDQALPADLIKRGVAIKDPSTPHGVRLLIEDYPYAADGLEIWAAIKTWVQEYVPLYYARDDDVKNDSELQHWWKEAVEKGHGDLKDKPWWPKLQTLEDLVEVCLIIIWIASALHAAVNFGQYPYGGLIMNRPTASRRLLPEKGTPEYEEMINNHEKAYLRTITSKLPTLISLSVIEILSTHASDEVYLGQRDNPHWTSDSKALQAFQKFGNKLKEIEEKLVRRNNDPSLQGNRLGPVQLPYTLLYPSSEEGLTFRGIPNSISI
Description: 3.5. Lipoxygenase inhibition of QNs. […] A key strategy to prevent potential damage to cellular compounds such as DNA, proteins and lipids is to reduce the free radical load. […] LOX index, a novel predictive biochemical marker for coronary heart disease and stroke. […] Thus, LOX inhibitors may provide multifactorial protection against ischemic injury. […] Most of the LOX inhibitors are often antioxidants or free radical scavengers.

[1] = Inhibition of linoleic acid peroxidation (AAPH, ILPO); conditions: tested at 100 μM
Experimental: Inhibition of Linoleic Acid Peroxidation.^32 For initiating the free radical, 2,2′-azobis(2-amidinopropane) dihydrochloride (AAPH) is used. The final solution in the UV cuvette consisted of ten microliters of the 16 mM linoleate sodium dispersion 0.93 mL of 0.05 M phosphate buffer, pH 7.4, thermostatted at 37° C. 50 μL of 40 mM AAPH solution was added as a free radical initiator at 37° C. under air and 10 μL of the tested compounds. The oxidation of linoleic acid sodium salt results a conjugated diene hydroperoxide. The reaction is monitored at 234 nm (Table 1).
3.3. Anti-lipid peroxidation activity of QNs. The water-soluble azo compound 2,2′-azobis(2-amidinopropane) dihydrochloride (AAPH) has been extensively used as a clean and controllable source of thermally produced alkyl peroxyl free radicals through spontaneous thermal decomposition. […] In the AAPH assay to determine the inhibition of the lipid peroxidation (ILPO), the highly reactive alkylperoxyl radicals are intercepted mainly by a hydrogen atom transfer from the antioxidant. As shown, QN23 presented limited value, where QNs 19, 22 and 24 presented very high values (Table 3).

[2] = ABTS radical cation decolorization assay; conditions: tested at 100 μM
Experimental: ABTS^⋅+-decolorization assay in ethanolic solution for antioxidant activity.^32,35 ABTS is dissolved in water to a 2 mM concentration. ABTS radical cation (ABTS^⋅+) is produced by reacting the ABTS stock solution with 0.17 mM potassium persulfate in phosphate buffer (pH 7.4, 20 mM) and allowing the mixture to stand in the dark at room temperature for 12-16 h before use. For steady state measurements, […] ABTS^⋅+ was used. For the present study, the […] ABTS^⋅ solution (200 μL) was diluted with ethanol (790 μL) to an absorbance of 0.70 at 734 nm, equilibrated at room temperature, mixed with 10 μL of the tested compounds (stock solutions 10 mM) and the absorbance reading was taken at room temperature 1 min after the initial mixing. Trolox was used as a standard.
3.4. ABTS^⋅+ antioxidant activity of QNs. The ABTS^⋅+ radical cation, derived from the oxidation of 2,2′-azino-bis(3-ethylbenzothiazoline-6-sulphonic acid) (ABTS) by potassium persulfate, is a green-blue stable chromophore, which can be analyzed in the course of a decolorization assay. The addition of electron-donor antioxidants leads to ABTS^⋅+ reduction. The chemistry taking place involves the direct generation of the ABTS^⋅+ with no involvement of an intermediary radical. […] Again, and as shown, QN23 presented limited activity beside with 19, although the others nitrones had no activity (Table 3).

Row | SMILES | LOX (%) (soybean lipoxygenase LOX) | ILPO (%) / AAPH (%) [1] | ABTS*+ (%) [2] | IC50 (soybean lipoxygenase LOX) [µM]
1 | COc1ccc2nc(Cl)c(/C=[N+](\[O-])C(C)(C)C)cc2c1 [Compound 23, (Z)—N-tert-Butyl-1-(2-chloro-6-methoxyquinolin-3-yl)methanimine oxide] | 29 | 22% | 7% | –
2 | CC(C)(C)/[N+]([O-])=C/c1ccc(S(=O)(=O)O)cc1S(=O)(=O)O [Compound 2, sodium (Z)-4-((tert-butyloxidoazanylidene)methyl)benzene-1,3-disulfonate, reference compound] | – | no | no | 57.5
3 | COc1ccc2nc(Cl)c(C=O)cc2c1 [Compound 32, 2-chloro-6-methoxyquinoline-3-carbaldehyde, reference compound] | – | 25% | 5% | 7.6
4 | COc1ccc2nc(Cl)c(/C=[N+](\[O-])Cc3ccccc3)cc2c1 [Compound 24, (Z)—N-Benzyl-1-(2-chloro-6-methoxyquinolin-3-yl)methanimine oxide] | – | 100% | no | 100
5 | CC(C)(C)/[N+]([O-])=C/c1cc2ccccc2[nH]c1=O [Compound 19, (Z)—N-tert-Butyl-1-(2-oxo-1,2-dihydroquinolin-3-yl)methanimine oxide] | – | 100% | 6% | 36.5
6 | COc1ccc2nc(Cl)c(/C=[N+](/C)[O-])cc2c1 [Compound 22, (Z)-1-(2-Chloro-6-methoxyquinolin-3-yl)-N-methylmethanimine oxide] | 26 | 100% | no | –
7 | CC(C)(C)/[N+]([O-])=C/c1cc2ccccc2nc1Cl [Compound 18, (Z)—N-t-Butyl-1-(2-chloroquinolin-3-yl)methanimine oxide] | – | no | no | –

Source: patent US12102631B2, “Quinolylnitrones for the treatment and prevention of a cerebral stroke or ischaemia” (ISQUAEMIA BIOTECH, S.L., priority 2018, dated 2024)
